This is an account of results in patent US20090318424A1, “NOVEL COMPOUNDS” (priority 2006, published 2009).

Entries after “also recorded” stand apart in the source; their conditions may differ.

This test has as its system influx of neutrophils to the lung in LPS-challenged rats. The test can be described thus: Rat LPS neutrophilia model. Format: in vivo. Conditions: LPS aerosol 100 ug/ml 15 min, lavage 4 hours later; in at least one of the range of conditions tested. As to the method: The effect of compounds on the influx of neutrophils to the lung in LPS-challenged rats is evaluated as follows. The test compound is suspended in one of the following solutions: 0.5% tween 80/PBS, 0.5% tween 80/saline, 10% EtOH/saline (with pH adjusted to 2.0, or 8.0 with HCl, or unadjusted), Saline @ pH 2.0, 6.5 or 8.0, 0.5% Tragacanth, 1% DMSO/20% Encapsin/Saline, or acidified 5% Tragacanth. The suspension process may be aided by the use of a glass homogenizer. For intratracheal administration, the animals are anesthetized with inhaled isoflurane and placed in a supine position, the trachea is intubated with a steel gavage needle (1.5 inch, 22 gauge, small ball) or a Penn-Century Microsprayer Aerosolizer (model IA-IB) and 200 ul of dosing solution is delivered. The animals are visually monitored during the recovery process, which typically occurs within two minutes.
Rats treated with compound or vehicle (15 min-24 hours pretreatment) are exposed to an LPS aerosol (100 ug/ml) for 15 min. Four hours later the rats are euthanized with pentobarbital (100 mg/kg, i.p.) and the airways are lavaged with 5 washes of 5 ml of phosphate buffered saline. The harvested cells are stained (Diffquick) and counted to determine total and differential cell data. In a typical study, macrophages represent 40-70% of the total cells, and polymorphonuclear cells 30-60% of the total cells. Inhibition of neutrophil levels relative to no compound controls is calculated based on the differential counts.
The assay has varying conditions, such as concentration, pretreat time, form of the compound (crystalline, amorphous, salts, micronised), and a wet or dry application of the compound. The data is obtained as % inhibition using a particular concentration and pretreat time.

For `CSc1nc(-c2cc(NC(=O)c3ccsc3)ccc2C)c2c(n1)N(c1c(F)cccc1F)C(=O)NC2` [7(c), N-{3-[8-(2,6-Difluorophenyl)-2-(methylthio)-7-oxo-5,6,7,8-tetrahydropyrimido[4,5-d]pyrimidin-4-yl]-4-methylphenyl}-3-thiophenecarboxamide], the inhibition of neutrophilia result is “inactive”.
The same measure for `Cc1ccc(C(=O)Nc2ccc(F)cc2)cc1-c1nc(NCCN(C)C)nc2c1CNC(=O)N2c1c(F)cccc1F` [8(c), 3-(8-(2,6-difluorophenyl)-2-{[2-(dimethylamino)ethyl]amino}-7-oxo-5,6,7,8-tetrahydropyrimido[4,5-d]pyrimidin-4-yl)-N-(4-fluorophenyl)-4-methylbenzamide]: “statistically significant inhibition”.
The same measure for `CSc1nc(-c2cc(NC(=O)c3ccc(C)c(F)c3)ccc2C)c2c(n1)N(c1c(F)cccc1F)C(=O)NC2` [23(c), N-{3-[8-(2,6-difluorophenyl)-2-(methylthio)-7-oxo-5,6,7,8-tetrahydropyrimido[4,5-d]pyrimidin-4-yl]-4-methylphenyl}-3-fluoro-4-methylbenzamide]: “inactive”; for `CCCNC(=O)c1ccc(C)c(-c2nc(NCCCN(CC)CC)nc3c2CNC(=O)N3c2c(F)cccc2F)c1` [29(c), 3-[2-{[3-(diethylamino)propyl]amino}-8-(2,6-difluorophenyl)-7-oxo-5,6,7,8-tetrahydropyrimido[4,5-d]pyrimidin-4-yl]-4-methyl-N-propylbenzamide]: “statistically significant inhibition”.
The same measure for `Cc1ccc(C(=O)NC(C)C)cc1-c1nc(N(C)CCCN(C)C)nc2c1CNC(=O)N2c1c(F)cccc1F` [34(d), 3-{8-(2,6-difluorophenyl)-2-[[3-(dimethylamino)propyl](methyl)amino]-7-oxo-5,6,7,8-tetrahydropyrimido[4,5-d]pyrimidin-4-yl}-4-methyl-N-(1-methylethyl)benzamide]: “statistically nonsignificant inhibition”.
`Cc1ccc(C(=O)Nc2ccc(F)cc2)cc1-c1nc(N2CCC(N3CCCC3)CC2)nc2c1CNC(=O)N2c1c(F)cccc1F` [86(c), 3-{8-(2,6-difluorophenyl)-7-oxo-2-[4-(1-pyrrolidinyl)-1-piperidinyl]-5,6,7,8-tetrahydropyrimido[4,5-d]pyrimidin-4-yl}-N-(4-fluorophenyl)-4-methylbenzamide]: the inhibition of neutrophilia entry is on record as “statistically nonsignificant inhibition”.
In the case of `Cc1ccc(C(=O)Nc2ccc(F)cc2)cc1-c1nc(N2CCC(N3CCCCC3)CC2)nc2c1CNC(=O)N2c1c(F)cccc1F` [87(b), 3-[2-(1,4′-bipiperidin-1′-yl)-8-(2,6-difluorophenyl)-7-oxo-5,6,7,8-tetrahydropyrimido[4,5-d]pyrimidin-4-yl]-N-(4-fluorophenyl)-4-methylbenzamide] it was “statistically nonsignificant inhibition”.
The same measure for `Cc1ccc(C(=O)Nc2nccs2)cc1-c1nc(NCCN(C)C)nc2c1CNC(=O)N2c1c(F)cccc1F` [118(c), 3-(8-(2,6-difluorophenyl)-2-{[2-(dimethylamino)ethyl]amino}-7-oxo-5,6,7,8-tetrahydropyrimido[4,5-d]pyrimidin-4-yl)-4-methyl-N-1,3-thiazol-2-ylbenzamide]: “statistically significant inhibition”.
The same measure for `Cc1ccc(C(=O)Nc2ccc(F)cc2)cc1-c1nc(N(C)CCCN(C)C)nc2c1CNC(=O)N2c1c(F)cccc1F` [Example 9, 3-{8-(2,6-difluorophenyl)-2-[[3-(dimethylamino)-propyl](methyl)amino]-7-oxo-5,6,7,8-tetrahydropyrimido[4,5-d]pyrimidin-4-yl}-N-(4-fluorophenyl)-4-methylbenzamide]: “statistically nonsignificant inhibition”; for `Cc1ccc(C(=O)Nc2ccc(F)cc2)cc1-c1nc(N(C)CCN(C)C)nc2c1CNC(=O)N2c1c(F)cccc1F` [Example 32, 3-{8-(2,6-difluorophenyl)-2-[[2-(dimethylamino)ethyl](methyl)amino]-7-oxo-5,6,7,8-tetrahydropyrimido[4,5-d]pyrimidin-4-yl}-N-(4-fluorophenyl)-4-methylbenzamide]: “statistically nonsignificant inhibition”; for `Cc1ccc(C(=O)NC(C)C)cc1-c1nc(N(C)CCN(C)C)nc2c1CNC(=O)N2c1c(F)cccc1F` [Example 36, 3-{8-(2,6-difluorophenyl)-2-[[2-(dimethylamino)ethyl](methyl)amino]-7-oxo-5,6,7,8-tetrahydropyrimido[4,5-d]pyrimidin-4-yl}-4-methyl-N-(1-methylethyl)benzamide]: “statistically significant inhibition”.
Take `Cc1ccc(C(=O)NC(C)C)cc1-c1nc(NCCN(C)C)nc2c1CNC(=O)N2c1c(F)cccc1F` [Example 37, 3-(8-(2,6-difluorophenyl)-2-{[2-(dimethylamino)ethyl]amino}-7-oxo-5,6,7,8-tetrahydropyrimido[4,5-d]pyrimidin-4-yl)-4-methyl-N-(1-methylethyl)benzamide]: the inhibition of neutrophilia entry was “statistically nonsignificant inhibition”.
As to `Cc1ccc(C(=O)Nc2ccc(F)cc2)cc1-c1nc(NC2CCN(C)CC2)nc2c1CNC(=O)N2c1c(F)cccc1F` [Example 39, 3-{8-(2,6-difluorophenyl)-2-[(1-methyl-4-piperidinyl)amino]-7-oxo-5,6,7,8-tetrahydropyrimido[4,5-d]pyrimidin-4-yl}-N-(4-fluorophenyl)-4-methylbenzamide], the inhibition of neutrophilia result is “statistically nonsignificant inhibition”.
`Cc1ccc(C(=O)NC(C)C)cc1-c1nc(NCCCN(C)C)nc2c1CNC(=O)N2c1c(F)cccc1F` [Example 40, 3-(8-(2,6-difluorophenyl)-2-{[3-(dimethylamino)propyl]amino}-7-oxo-5,6,7,8-tetrahydropyrimido[4,5-d]pyrimidin-4-yl)-4-methyl-N-(1-methylethyl)benzamide]: the inhibition of neutrophilia result is “statistically significant inhibition”.
The same measure for `Cc1ccc(C(=O)Nc2ccc(F)cc2)cc1-c1nc(NCCCN(C)C)nc2c1CNC(=O)N2c1c(F)cccc1F` [Example 42, 3-(8-(2,6-difluorophenyl)-2-{[3-(dimethylamino)propyl]amino}-7-oxo-5,6,7,8-tetrahydropyrimido[4,5-d]pyrimidin-4-yl)-N-(4-fluorophenyl)-4-methylbenzamide]: “statistically significant inhibition”; for `CCN(CC)CCCNc1nc(-c2cc(C(=O)Nc3ccc(F)cc3)ccc2C)c2c(n1)N(c1c(F)cccc1F)C(=O)NC2` [Example 43, 3-[2-{[3-(diethylamino)propyl]amino}-8-(2,6-difluorophenyl)-7-oxo-5,6,7,8-tetrahydropyrimido[4,5-d]pyrimidin-4-yl]-N-(4-fluorophenyl)-4-methylbenzamide]: “inactive”.
As to `CCCNC(=O)c1ccc(C)c(-c2nc(N(C)CCCN(C)C)nc3c2CNC(=O)N3c2c(F)cccc2F)c1` [Example 53, 3-{8-(2,6-difluorophenyl)-2-[[3-(dimethylamino)propyl](methyl)amino]-7-oxo-5,6,7,8-tetrahydropyrimido[4,5-d]pyrimidin-4-yl}-4-methyl-N-propylbenzamide], the inhibition of neutrophilia entry is recorded as “statistically nonsignificant inhibition”.
The same measure for `Cc1ccc(C(=O)NC(C)C)cc1-c1nc(N2CCC(N3CCCCC3)CC2)nc2c1CNC(=O)N2c1c(F)cccc1F` [Example 57, 3-[2-(1,4′-bipiperidin-1′-yl)-8-(2,6-difluorophenyl)-7-oxo-5,6,7,8-tetrahydropyrimido[4,5-d]pyrimidin-4-yl]-4-methyl-N-(1-methylethyl)benzamide]: “statistically nonsignificant inhibition”; for `Cc1ccc(C(=O)NC(C)C)cc1-c1nc(N2CCC(N3CCCC3)CC2)nc2c1CNC(=O)N2c1c(F)cccc1F` [Example 60, 3-{8-(2,6-difluorophenyl)-7-oxo-2-[4-(1-pyrrolidinyl)-1-piperidinyl]-5,6,7,8-tetrahydropyrimido[4,5-d]pyrimidin-4-yl}-4-methyl-N-(1-methylethyl)benzamide]: “statistically nonsignificant inhibition; also recorded: inactive”.
The same measure for `Cc1ccc(C(=O)NC(C)C)cc1-c1nc(N2CCC(N3CCC(C)CC3)CC2)nc2c1CNC(=O)N2c1c(F)cccc1F` [Example 70, 3-[8-(2,6-difluorophenyl)-2-(4-methyl-1,4′-bipiperidin-1′-yl)-7-oxo-5,6,7,8-tetrahydropyrimido[4,5-d]pyrimidin-4-yl]-4-methyl-N-(1-methylethyl)benzamide]: “statistically significant inhibition”; for `Cc1ccc(C(=O)NC(C)C)cc1-c1nc(N2CCC(N3CCN(C)CC3)CC2)nc2c1CNC(=O)N2c1c(F)cccc1F` [Example 72, 3-{8-(2,6-difluorophenyl)-2-[4-(4-methyl-1-piperazinyl)-1-piperidinyl]-7-oxo-5,6,7,8-tetrahydropyrimido[4,5-d]pyrimidin-4-yl}-4-methyl-N-(1-methylethyl)benzamide]: “statistically significant inhibition”.
